Values after ≈ are worked out from the molar mass of the structure shown.
Assays:
[1] = enteral absorbability, serum concentration after oral administration to mice; format: in vivo; conditions: mouse, 50 mg/kg orally, fasted male ICR mice; for concentration at 0.5 h: 30 min.
Protocol: Using male ICR mice fasted overnight (weighing 20±1 g), the enteral absorbability of some typical examples of the present compounds [I] was tested. This test was carried out by administering 50 mg/kg of each test compound orally to mice and determining its serum concentration 30 minutes, 1 hour, 2 hours and 4 hours after administration. Five mice were used for each test point. At each test point, whole blood was collected from the mice by cardiac puncture and used to prepare serum samples. Concentrations of the test compounds in serum samples were determined by the paper disc method using Escherichia coli CI-304 as the test microorganism.
For purposes of comparison, the enteral absorbability of ofloxacin and OPC-7241 was tested in the same manner as described above and the results thus obtained are also shown in Table 2.

[2] = tested on: Serratia marcescens IAM 1184; test: minimal inhibitory concentration, in vitro antibacterial activity; format: cell-based; conditions: IAM1184, 37° C., 20 hours
Protocol: (§1) The in vitro antibacterial activities of typical examples of the present compounds [I] were evaluated in terms of the minimal inhibitory concentration defined as the lowest concentration of the compound preventing the bacterial growth. The Gram-positive bacteria used as test microorganisms included Bacillus subtilis, Staphylococcus aureus and Streptococcus faecalis, and the Gram-negative bacteria used as test microorganisms included Escherichia coli, Enterobacter cloacae, Klebsiella pneumoniae, Proteus vulgaris, Pseudomonas aeruginosa, Serratia marcescens and Salmonella enteritidis. The minimal inhibitory concentration (cultured at 37° C. for 20 hours) was determined according to the standard method prescribed by the Japan Society of Chemotherapy (CHEMOTHERAPY, Vol. 29, No. 1, p. 76, 1981). The following compounds were used as typical examples of the present compounds [I]. At the end of the chemical name of each compound, its tentative designation is given in Parentheses.
(§2) For purposes of comparison, the in vitro antibacterial activities of ofloxacin, OPC-7241 and compound α were evaluated according to the same method as described above and the test results thus obtained are also shown in Table 1.

[3] = tested on: Proteus vulgaris ATCC 13315; test: as above; format: cell-based; conditions: ATCC13315, 37° C., 20 hours
Protocol: as §1, §2

[4] = tested on: Escherichia coli CI-304; test: as above; format: cell-based; conditions: CI304, 37° C., 20 hours
Protocol: as §1, §2

[5] = tested on: Bacillus subtilis ATCC 6633; test: as above; format: cell-based; conditions: ATCC6633, 37° C., 20 hours
Protocol: as §1, §2

[6] = tested on: Escherichia coli NIHJ JC-2; test: as above; format: cell-based; conditions: NIHJJC2, 37° C., 20 hours
Protocol: as §1, §2

[7] = tested on: Pseudomonas aeruginosa NCTC 10490; test: as above; format: cell-based; conditions: NCTC10490, 37° C., 20 hours
Protocol: as §1, §2

[8] = tested on: Streptococcus faecalis AHU 1085; test: as above; format: cell-based; conditions: Enterococcus faecalis, AHU1085, 37° C., 20 hours
Protocol: as §1, §2

[9] = tested on: Klebsiella pneumoniae PCI 602; test: as above; format: cell-based; conditions: PCI602, 37° C., 20 hours
Protocol: as §1, §2

[10] = tested on: Staphylococcus aureus FDA 209P JC-1; test: as above; format: cell-based; conditions: FDA209P, 37° C., 20 hours
Protocol: as §1, §2

[11] = tested on: Enterobacter cloacae 963; test: as above; format: cell-based; conditions: 37° C., 20 hours
Protocol: as §1, §2

[12] = tested on: Salmonella enteritidis G14; test: as above; format: cell-based; conditions: Salmonella enterica, 37° C., 20 hours
Protocol: as §1, §2

[13] = tested on: Escherichia coli CI-304; test: therapeutic effect on experimentally induced infection in mice; format: in vivo, Escherichia coli CI-304 in male ddY strain mice; conditions: CI304, po, 168 h, orally, one hour after inoculation, survival after 7 days
Protocol: Using male ddY strain mice infected with Escherichia coli CI-304 (in groups of five; weighing 20±1 g), the therapeutic effect of some typical examples of the present compounds [I] was tested. The therapeutic effect was evaluated by administering each test compound orally to infected mice and calculating ED50 from the number of mice surviving after the lapse of 7 days. Infected mice were prepared by suspending cells of the aforesaid Escherichia coli strain in a 5% mucin solution and injecting this suspension into the peritoneal cavity of mice. The dose of the bacterial cells was ten times the minimal lethal dose which had previously been determined by a preliminary test. One hour after inoculation of the bacterial cells, each test compound was administered orally to the mice.
For purposes of comparison, ofloxacin and OPC-7241 were tested in the same manner as described above and the results thus obtained are also shown in Table 3.

[14] = 1 mg/mouse (equivalent to 50 mg/kg) orally, cited from earlier work
[15] = tested on: Gram-negative and Gram-positive bacteria; conditions: in vitro tests with Gram-negative and Gram-positive bacteria; cited from earlier work
[16] = 50 mg/kg orally, fasted mice, after 30 minutes; cited from earlier work

Structure (SMILES)	concentration at 0.5 h [1] [ng/mL]	concentration at 1 h [1] [ng/mL]	concentration at 2 h [1] [ng/mL]	concentration at 4 h [1] [ng/mL]	MIC [2] [µg/mL]	MIC [3] [µg/mL]	MIC [4] [µg/mL]	MIC [5] [µg/mL]	MIC [6] [µg/mL]	MIC [7] [µg/mL]	MIC [8] [µg/mL]	MIC [9] [µg/mL]	MIC [10] [µg/mL]	MIC [11] [µg/mL]	MIC [12] [µg/mL]	ED50 [13] [mg/kg]	residual concentration in the serum ([14]; 2 hours after administration) [µg/mL]	serum concentration ([14]; fasted mice, after 30 minutes) [ng/mL]	antibacterial activity [15]	degree of absorption into the serum, average peak value [16] [µg/mL]
CC1CN(c2c(F)cc3c(=O)c(C(=O)O)cn4c3c2C(=O)CC4C)CCN1 (stereo not drawn) [Compound 16, 9-fluoro-5-methyl-8-(3-methyl-1-piperazinyl)-6,7-dihydro-1,7-dioxo-1H, 5H-benzo[ij]quinolizine-2-carboxylic acid]	16400	13600	8100	4800	1.56 (≈ 4.18 µM)	0.2 (≈ 0.536 µM)	0.1 (≈ 0.268 µM)	0.2 (≈ 0.536 µM)	0.2 (≈ 0.536 µM)	0.78 (≈ 2.09 µM)	0.78 (≈ 2.09 µM)	0.1 (≈ 0.268 µM)	0.2 (≈ 0.536 µM)	0.2 (≈ 0.536 µM)	0.78 (≈ 2.09 µM)	0.71	–	–	–	–
CCN1CCN(c2c(Cl)cc3c(=O)c(C(=O)O)cn4c3c2C(=O)CC4C)CC1 (stereo not drawn) [Compound 9, 9-Chloro-5-methyl-8-(4-ethyl-1-piperazinyl) -6,7-dihydro-1,7-dioxo-1H, 5H-benzo[ij]quinolizine-2-carboxylic acid]	20200	15900	7700	4500	3.13 (≈ 7.75 µM)	0.2 (≈ 0.495 µM)	0.1 (≈ 0.248 µM)	0.2 (≈ 0.495 µM)	0.2 (≈ 0.495 µM)	0.78 (≈ 1.93 µM)	1.56 (≈ 3.86 µM)	0.1 (≈ 0.248 µM)	0.39 (≈ 0.966 µM)	0.2 (≈ 0.495 µM)	0.78 (≈ 1.93 µM)	–	–	–	–	–
CC1COc2c(N3CCN(C)CC3)c(F)cc3c(=O)c(C(=O)O)cn1c23 (stereo not drawn) [Ofloxacin, 9-fluoro-3-methyl-10-(4-methyl-1-piperazinyl)-7-oxo-2,3-dihydro-7H-pyrido[1,2,3-de][1,4]benzoxazine-6-carboxylic acid, reference compound]	9000	6200	2600	1200	0.78 (≈ 2.16 µM)	0.1 (≈ 0.277 µM)	0.1 (≈ 0.277 µM)	0.1 (≈ 0.277 µM)	0.2 (≈ 0.553 µM)	0.78 (≈ 2.16 µM)	0.78 (≈ 2.16 µM)	0.1 (≈ 0.277 µM)	0.2 (≈ 0.553 µM)	0.2 (≈ 0.553 µM)	0.39 (≈ 1.08 µM)	0.9	1.5	10000	–	–
CC1CCc2c(N3CCN(C)CC3)c(F)cc3c(=O)c(C(=O)O)cn1c23 (stereo not drawn) [OPC-7241, 9-fluoro-6,7-dihydro-5-methyl-8-(4-methyl-1-piperazinyl)-1-oxo-1H, 5H-benzo[ij]quinolizine-2-carboxylic acid, reference compound]	9300	7800	4100	2200	1.56 (≈ 4.34 µM)	0.1 (≈ 0.278 µM)	0.2 (≈ 0.556 µM)	0.1 (≈ 0.278 µM)	0.39 (≈ 1.09 µM)	3.13 (≈ 8.71 µM)	0.78 (≈ 2.17 µM)	0.1 (≈ 0.278 µM)	0.39 (≈ 1.09 µM)	0.78 (≈ 2.17 µM)	0.78 (≈ 2.17 µM)	1.7	–	–	–	–
CC1CC(=O)c2c(N3CCN(C)CC3)c(F)cc3c(=O)c(C(=O)O)cn1c23 (stereo not drawn) [Compound 3, 9-Fluoro-5-methyl-8-(4-methyl-1-piperazinyl)-6,7-dihydro-1,7-dioxo-1H, 5H-benzo[ij]quinolizine-2-carboxylic acid]	24200	22400	12600	8400	1.56 (≈ 4.18 µM)	0.2 (≈ 0.536 µM)	0.1 (≈ 0.268 µM)	0.1 (≈ 0.268 µM)	0.2 (≈ 0.536 µM)	0.78 (≈ 2.09 µM)	0.78 (≈ 2.09 µM)	0.1 (≈ 0.268 µM)	0.39 (≈ 1.04 µM)	0.2 (≈ 0.536 µM)	0.78 (≈ 2.09 µM)	0.52	–	–	–	–
CCn1cc(C(=O)O)c(=O)c2cc(F)c(N3CCNCC3)cc21 [norfloxacin, 1-ethyl-6-fluoro-1,4-dihydro-7-(1-piperazinyl)-4-oxoquinoline-3-carboxylic acid]	–	–	–	–	–	–	–	–	–	–	–	–	–	–	–	–	–	–	excellent antibacterial activity	1 ± 0.6
CC1CN(c2c(F)cc3c(=O)c(C(=O)O)cn4c3c2C=CC4C)CCN1 (stereo not drawn) [Compound 29, 9-Fluoro-5-methyl-8-(3-methyl-1-piperazinyl) -1-oxo-1H, 5H-benzo[ij]quinolizine-2-carboxylic acid]	15600	14400	9800	4200	0.78 (≈ 2.18 µM)	0.1 (≈ 0.28 µM)	0.1 (≈ 0.28 µM)	0.2 (≈ 0.56 µM)	0.1 (≈ 0.28 µM)	1.56 (≈ 4.37 µM)	0.78 (≈ 2.18 µM)	0.1 (≈ 0.28 µM)	0.2 (≈ 0.56 µM)	0.2 (≈ 0.56 µM)	0.78 (≈ 2.18 µM)	0.69	–	–	–	–

From US4720495A, “Benzo[ij]quinolizine-2-carboxylic acids useful for treating bacterial infection” (priority 1985, dated 1988)
